In paper PMC11455950, “Effects of SZV-2649, a new multiple ion channel inhibitor mexiletine analogue” (Scientific Reports, 2024) one finds inhibition data, which are given here for 1 compound.

The test system of this experiment is rapid delayed rectifier potassium current (IKr). The experiment in a line: Whole-cell patch-clamp, rapid delayed rectifier potassium current in dog ventricular myocytes. Type of experiment: cell-based. Particulars: Canis lupus familiaris, Ventricular myocyte, tail current, dog left ventricular myocytes. As for the experimental part: The effects of SZV-2649 on transmemrane ionic currents were investigated in dog cardiac myocytes after a 5-minute superfusion of the drug.
The rapid delayed rectifier potassium current (IKr) was elicited from the holding potential of -80 mV following a prepulse to -40 mV. IKr tail current was measured at a post pulse to -40 mV after 1 s long test pulses from − 30 mV to 50 mV using 10 mV increments at the pulsing cycle length of 20 s (see inset of Fig. 4A). The effect of SZV-2649 was investigated at 1 and 5 µM concentrations.
Ventricular myocytes from Beagle dogs were enzymatically dissociated as described in detail previously. […]
The membrane currents were recorded with Axopatch-200B amplifiers (Molecular Devices, Sunnyvale, CA, USA) by means of the whole-cell configuration of the patch-clamp technique. […]
The inward rectifier (IK1), the transient outward (Ito), the rapid (IKr) and the slow (IKs) delayed rectifier potassium currents were recorded in HEPES-buffered Tyrode’s solution. […] When IKr was recorded, IKs was inhibited by using the selective IKs blocker HMR-1556 (0.5 µM). […]

On to `CC(N)COc1c(I)cc(C#N)cc1I.Cl` (centres unmarked) [SZV-2649, 4-(2-aminopropoxy)-3,5-diiodobenzonitrile hydrochloride], for which the inhibition (commonly how much of the control response was suppressed) at 1 µM (1 µM) is about 23%. Where the note is “5 µM”, the inhibition at 5 µM was about 75%.
